Conditions in all cases: organic phase and phase ratio per example
Data set [1] is described as follows: Liquid-liquid extraction from aqueous lithium-containing solution, ICP detection: sodium.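 Further: sodium measured by inductively coupled plasma optical emission spectrometry in the diluted aqueous phase left after shaking with the organic phase and phase separation.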
The nature of data set [2]: Liquid-liquid extraction from aqueous lithium-containing solution, ICP detection: lithium.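 Further: component concentrations in the aqueous phase were measured by inductively coupled plasma optical emission spectrometry after shaking and phase separation.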
The nature of data set [3]: Liquid-liquid extraction from aqueous lithium-containing solution, ICP detection: potassium.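 Further: analysis by ICP optical emission spectrometry.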
Where [4] appears, read: feed B7 (cLi 0.833, cNa 55.60, cK 5.37 g/L, pH 12.05), 26°C.
The mark [5] stands for this setting: feed B1 (cLi 0.807, cNa 56.12 g/L, pH 11.48).
[6] abbreviates: feed B2 (cLi 0.947, cNa 51.63 g/L, pH 10.77).
[7] abbreviates: feed B4 (cLi 0.152, cNa 34.20, cK 2.36 g/L, pH 9.14).
Setting [8] is: feed B3 (cLi 0.937, cNa 119.10, cK 43.03 g/L, pH 9.60).
[9] abbreviates: feed B5 (cLi 0.261, cNa 39.98, cK 7.61 g/L, pH 9.49).

For “2-hydroxy-5-fluoroacetophenone [Example 40]”, in data set [1] (setting [4]), the “cNa, remaining aqueous phase R1” value is listed as 49.81 g/L and the “extraction rate for sodium ions” value amounted to 10.4%. Moreover, in data set [2] (setting [4]), the “cLi, remaining aqueous phase R1” value turned out to be 0.417 g/L; the “extraction rate for lithium ions” value is 50%; the “separation factor of Li/Na” value came out at 8.6. In data set [3] (setting [4]), the “cK, remaining aqueous phase R1” value came to 4.86 g/L and the “extraction rate for potassium ions” value was found to be 9.5%.
2-hydroxydibenzophenone [Example 2]: in data set [1] (setting [5]), the “cNa, remaining aqueous phase R1” value was 50.23 g/L and the “extraction rate for sodium ions” value is reported as 10.5%. Further, in data set [2] (setting [5]), the “cLi, remaining aqueous phase R1” value amounted to 0.362 g/L; the “extraction rate for lithium ions” value is listed as 55.1%; the “separation factor of Li/Na” value amounted to 10.5.
Regarding 2-hydroxydibenzophenone [Example 29], the “extraction rate for sodium ions” value in data set [1] (setting [6]) worked out at 2.32%. In data set [2] (setting [6]), the “extraction rate for lithium ions” value is recorded as 73.3% and the “separation factor of Li/Na” value turned out to be 72.8.
Consider “4-dodecyloxy-5-bromo-2-hydroxydibenzophenone [Example 14]”, for which the “extraction rate for sodium ions” value in data set [1] (setting [7]) was 5.8%. Also, in data set [2] (setting [7]), the “extraction rate for lithium ions” value was 48.7%, the “separation factor of Li/K” value was found to be 2.8 and the “separation factor of Li/Na” value amounted to 15.3. Besides, in data set [3] (setting [7]), the “extraction rate for potassium ions” value stood at 25.0%.
Regarding `CCC(O)C(=O)c1ccccc1` (single isomer, unassigned) [Example 4, 2-hydroxybutyrophenone], the “extraction rate for sodium ions” value in data set [1] (setting [5]) is listed as 4.8%. In addition, in data set [2] (setting [5]), the “extraction rate for lithium ions” value is recorded as 60.1% and the “separation factor of Li/Na” value is 29.8.
The like results for `CCC(O)C(=O)c1ccccc1` (single isomer, unassigned) [Example 5, 2-hydroxybutyrophenone] were, in that order, 6.8%, 80.5% and 57.0.
As to `CC(=O)CC(=O)c1ccccc1` [Comparative Example 1, benzoyl acetone, reference compound], the “extraction rate for sodium ions” value in data set [1] (setting [8]) came out at 5.43%. Also, in data set [2] (setting [8]), the “extraction rate for lithium ions” value worked out at 53.0% and the “separation factor of Li/Na” value was determined as 19.6. Also, in data set [3] (setting [8]), the “cK, remaining aqueous phase R1” value is 41.79 g/L.
`CC(=O)CC(=O)c1ccccc1` [Comparative Example 2, benzoyl acetone, reference compound]: the “extraction rate for sodium ions” value in data set [1] (setting [9]) turned out to be 4.45%. In data set [2] (setting [9]), the “extraction rate for lithium ions” value turned out to be 23.4% and the “separation factor of Li/Na” value is on record as 6.54. Further, the “cK, remaining aqueous phase R1” value in data set [3] (setting [9]) is recorded as 7.52 g/L.
In the case of `O=C(CC(=O)c1ccccc1)c1ccccc1` [Comparative Example 3, 1,3-diphenyl-1,3-propanedione, reference compound], in data set [1] (setting [8]), the “cNa, remaining aqueous phase R1” value is listed as 115.32 g/L and the “extraction rate for sodium ions” value is 3.17%. Moreover, in data set [2] (setting [8]), the “cLi, remaining aqueous phase R1” value came to 0.377 g/L; the “extraction rate for lithium ions” value worked out at 59.76%; the “separation factor of Li/Na” value is reported as 45.3. In data set [3] (setting [8]), the “cK, remaining aqueous phase R1” value came to 43.21 g/L.
As for `O=C(CC(=O)c1ccccc1)c1ccccc1` [Comparative Example 4, 1,3-diphenyl-1,3-propanedione, reference compound], in data set [1] (setting [9]), the “cNa, remaining aqueous phase R1” value was determined as 38.12 g/L and the “extraction rate for sodium ions” value worked out at 4.65%. In data set [2] (setting [9]), the “cLi, remaining aqueous phase R1” value turned out to be 0.186 g/L; the “extraction rate for lithium ions” value amounted to 28.73%; the “separation factor of Li/Na” value was 8.3. Also, the “cK, remaining aqueous phase R1” value in data set [3] (setting [9]) worked out at 7.60 g/L.
For the molecule `CCCCCCCCCCCCCCCCCC(=O)CC(=O)c1ccccc1` [Comparative Example 5, stearoylbenzoylmethane, reference compound], in data set [1] (setting [8]), the “cNa, remaining aqueous phase R1” value was 113.57 g/L and the “extraction rate for sodium ions” value worked out at 4.64%. In data set [2] (setting [8]), the “cLi, remaining aqueous phase R1” value is given as 0.577 g/L; the “extraction rate for lithium ions” value amounted to 38.42%; the “separation factor of Li/Na” value was determined as 12.8. In addition, the “cK, remaining aqueous phase R1” value in data set [3] (setting [8]) came to 41.03 g/L.
With `Cc1ccc(C(=O)CC(=O)C(F)(F)F)cc1` [Comparative Example 6, 4,4,4-trifluoro-1-(4-tolyl)-1,3-butanedione, reference compound], in data set [1] (setting [8]), the “extraction rate for sodium ions” value is reported as 3.30%. In addition, in data set [2] (setting [8]), the “extraction rate for lithium ions” value worked out at 81.11% and the “separation factor of Li/Na” value is 125.8. Further, in data set [3] (setting [8]), the “cK, remaining aqueous phase R1” value stood at 42.11 g/L.
With `CC1=NN(c2ccccc2)C(=O)C1C(=O)c1ccccc1` (centres unmarked) [Comparative Example 7, 1-phenyl-3-methyl-4-benzoyl-5-pyrazolone, reference compound], the “extraction rate for sodium ions” value in data set [1] (setting [8]) came to 1.09%. Moreover, in data set [2] (setting [8]), the “extraction rate for lithium ions” value was 1.28% and the “separation factor of Li/Na” value is 1.17. Further, in data set [3] (setting [8]), the “cK, remaining aqueous phase R1” value is 42.96 g/L.
As for `CC1=NN(c2ccccc2)C(=O)C1C(=O)c1ccccc1` (centres unmarked) [Comparative Example 8, 1-phenyl-3-methyl-4-benzoyl-5-pyrazolone, reference compound], in data set [1] (setting [5]), the “extraction rate for sodium ions” value came out at 4.40%. Besides, in data set [2] (setting [5]), the “extraction rate for lithium ions” value is reported as 7.43% and the “separation factor of Li/Na” value is 1.74.
Consider `CC(O)C(=O)c1ccccc1` (centres unmarked) [Example 3, 2-hydroxypropiophenone], for which, in data set [1] (setting [5]), the “cNa, remaining aqueous phase R1” value was 52.10 g/L and the “extraction rate for sodium ions” value is 7.2%. For the same molecule, in data set [2] (setting [5]), the “cLi, remaining aqueous phase R1” value was 0.383 g/L; the “extraction rate for lithium ions” value was 52.5%; the “separation factor of Li/Na” value was 14.3.
For `CC(=O)c1ccc(OCc2ccccc2)cc1O` [Example 6, 4-benzyloxy-2-hydroxyacetophenone], the “extraction rate for sodium ions” value in data set [1] (setting [5]) is recorded as 1.4%. For the same molecule, in data set [2] (setting [5]), the “extraction rate for lithium ions” value is reported as 34.7% and the “separation factor of Li/Na” value is 37.7.
Turning to `CCCCCCOc1ccc(C(=O)c2ccccc2)c(O)c1` [Example 8, 4-hyxyloxy-2-hydroxydibenzophenone], the “extraction rate for sodium ions” value in data set [1] (setting [5]) is 6.5%. For the same molecule, in data set [2] (setting [5]), the “extraction rate for lithium ions” value was found to be 67.0% and the “separation factor of Li/Na” value is given as 29.5.
On to `CCCCCCCOc1ccc(C(=O)c2ccccc2)c(O)c1` [Example 9, 4-heptoxy-2-hydroxydibenzophenone], for which the “extraction rate for sodium ions” value in data set [1] (setting [5]) was determined as 6.2%. In addition, in data set [2] (setting [5]), the “extraction rate for lithium ions” value was determined as 60.8% and the “separation factor of Li/Na” value is recorded as 23.6.
As for `CCCCCCCCOc1ccc(C(=O)c2ccccc2)c(O)c1` [Example 10, 4-octyloxy-2-hydroxydibenzophenone], the “extraction rate for sodium ions” value in data set [1] (setting [6]) is 4.5%. Moreover, in data set [2] (setting [6]), the “extraction rate for lithium ions” value was 9.8% and the “separation factor of Li/Na” value is recorded as 2.3.
As to `CCCCCCCCCCOc1ccc(C(=O)c2ccccc2)c(O)c1` [Example 11, 4-decyloxy-2-hydroxydibenzophenone], in data set [1] (setting [8]), the “extraction rate for sodium ions” value amounted to 0.9%. Also, in data set [2] (setting [8]), the “extraction rate for lithium ions” value is 3.1% and the “separation factor of Li/Na” value is 3.5. Also, in data set [3] (setting [8]), the “cK, remaining aqueous phase R1” value turned out to be 42.65 g/L.
With `CCCCCCCCOc1cc(O)c(C(=O)c2ccccc2)cc1[N+](=O)[O-]` [Example 13, 4-octyloxy-5-nitro-2-hydroxydibenzophenone], in data set [1] (setting [8]), the “extraction rate for sodium ions” value was found to be 5.2%. Also, in data set [2] (setting [8]), the “extraction rate for lithium ions” value came to 64.7%, the “separation factor of Li/K” value turned out to be 39.9 and the “separation factor of Li/Na” value was 33.2. Moreover, the “extraction rate for potassium ions” value in data set [3] (setting [8]) was found to be 4.4%.
As for `CCCCCCCCCCCCOc1cc(O)c(C(=O)c2ccccc2)cc1Br` [Example 15, 4-dodecyloxy-5-bromo-2-hydroxydibenzophenone], the “extraction rate for sodium ions” value in data set [1] (setting [7]) turned out to be 6.9%. Also, in data set [2] (setting [7]), the “extraction rate for lithium ions” value is on record as 64.5%, the “separation factor of Li/K” value was 5.8 and the “separation factor of Li/Na” value is on record as 24.4. Further, in data set [3] (setting [7]), the “cK, remaining aqueous phase R1” value came to 1.80 g/L and the “extraction rate for potassium ions” value stood at 23.7%.
On to `CCCCCCCCOc1c([N+](=O)[O-])cc(C(=O)c2ccccc2)c(O)c1[N+](=O)[O-]` [Example 16, 4-octyloxy-2,5-dinitro-2-hydroxydibenzophenone], for which, in data set [1] (setting [9]), the “extraction rate for sodium ions” value was 12.7%. Besides, in data set [2] (setting [9]), the “extraction rate for lithium ions” value worked out at 88.5%, the “separation factor of Li/K” value is 73.7 and the “separation factor of Li/Na” value is recorded as 52.9. In data set [3] (setting [9]), the “cK, remaining aqueous phase R1” value is on record as 6.89 g/L and the “extraction rate for potassium ions” value is 9.5%.
With `COc1ccc(C(=O)c2ccc(OC)cc2O)c(O)c1` [Example 28, 2,2'-dihydroxy-4,4'-dimethoxydibenzophenone], the “extraction rate for sodium ions” value in data set [1] (setting [5]) turned out to be 3.4%. Also, in data set [2] (setting [5]), the “extraction rate for lithium ions” value stood at 83.6% and the “separation factor of Li/Na” value was found to be 146.7.
`COc1cccc(O)c1C(C)=O` [Example 31, 2-hydroxy-6-methoxyacetophenone]: the “extraction rate for sodium ions” value in data set [1] (setting [4]) is recorded as 9.86%. In data set [2] (setting [4]), the “extraction rate for lithium ions” value was 53.42% and the “separation factor of Li/Na” value amounted to 10.5. In data set [3] (setting [4]), the “extraction rate for potassium ions” value is listed as 3.2%.
Take `CC(=O)c1cc(OCc2ccccc2)ccc1O` [Example 32, 2-hydroxy-5-benzyloxyacetophenone]: the “extraction rate for sodium ions” value in data set [1] (setting [4]) came out at 7.8%. In addition, in data set [2] (setting [4]), the “extraction rate for lithium ions” value came to 46.6% and the “separation factor of Li/Na” value came out at 10.3. For the same molecule, in data set [3] (setting [4]), the “cK, remaining aqueous phase R1” value amounted to 5.01 g/L and the “extraction rate for potassium ions” value was 6.7%.

The values are drawn from patent EP4549424A1, “NEW LITHIUM EXTRACTING AGENT AND LIQUID ORGANIC MIXTURE THEREOF, AND METHOD FOR EXTRACTING LITHIUM BY MEANS OF EXTRACTION” (Beijing Salt Lake Technology Development Company Limited, priority 2022, dated 2024).
